Experiment in all cases: KinomeScan profiling
What all share (assay type): binding

In one test the target is PDGFRB (Homo sapiens, UniProt P09619). As to conditions: read-out: % control. The procedure, abridged:
(§1)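 First, compounds in DMSO are added at 1 μM to each of 468 kinase assays. Next, RLU signals are normalised between positive control (0%) and DMSO (100%). Finally, kinases under 35% are flagged active.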

For a further test, the target named is T1, PIK3CA(C420R) (Homo sapiens, UniProt P42336, C420R).
T1 construct: purchased KinomeScan® (panel service)
As to conditions: read-out: % control. In a few lines: as §1

The next test concerns the target T2, MAPKAPK5 (Homo sapiens, UniProt Q8IW41).
T2 sequence (Q8IW41 1-473): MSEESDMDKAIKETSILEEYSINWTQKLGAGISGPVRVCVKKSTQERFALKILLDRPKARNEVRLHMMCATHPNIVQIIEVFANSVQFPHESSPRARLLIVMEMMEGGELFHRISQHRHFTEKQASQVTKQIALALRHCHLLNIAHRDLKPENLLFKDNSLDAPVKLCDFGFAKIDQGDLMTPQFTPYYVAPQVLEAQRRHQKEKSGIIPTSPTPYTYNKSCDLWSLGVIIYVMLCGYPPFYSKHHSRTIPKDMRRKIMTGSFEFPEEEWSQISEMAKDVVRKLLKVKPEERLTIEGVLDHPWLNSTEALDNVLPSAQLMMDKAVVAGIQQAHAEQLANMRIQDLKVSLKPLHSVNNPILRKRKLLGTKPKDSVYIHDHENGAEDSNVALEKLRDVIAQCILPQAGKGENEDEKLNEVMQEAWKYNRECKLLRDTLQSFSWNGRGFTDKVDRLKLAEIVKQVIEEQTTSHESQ
The following applies: MAPKAPK5, 1 μM; read-out: % control. In a few lines:
(§2)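 Single-point competition binding screen: 1 μM, DMSO, 468 kinases. Results reported as % control from RLU, normalised to DMSO and positive-control wells. Activity threshold: <35% control.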

The target in a further test is T3, ALK (Homo sapiens, UniProt Q9UM73).
T3 construct: purchased KinomeScan®
The following applies: read-out: % control. In a few lines: as §2

The next test addresses FGFR4 (Homo sapiens, UniProt P22455). As to conditions: FGFR4, 1 μM; read-out: % control. In a few lines: as §2
The target in a further test is MINK (Homo sapiens, UniProt Q8N4C8). As to conditions: read-out: % control. In a few lines: as §2
For another test, the target named is OSR1 (Homo sapiens, UniProt O95747). The following applies: OSR1, 1 μM; read-out: % control. The procedure, abridged: as §2
A further test deals with CSNK2A1 (Homo sapiens, UniProt P68400). The following applies: CSNK2A1, 1 μM; read-out: % control. In a few lines:
as §2

The target of the next test is T4, INSRR (Homo sapiens, UniProt P14616).
T4 construct: purchased KinomeScan®
The following applies: read-out: % control. In a few lines:
as §2

The target in a further test is MET(Y1235D) (Homo sapiens, UniProt P08581, Y1235D). As to conditions: read-out: % control. In a few lines:
as §2

The target in test [1] is T5, JAK3(JH1domain-catalytic) (Homo sapiens, UniProt P52333).
T5 construct: JAK3(JH1domain-catalytic); purchased KinomeScan®
As to conditions: read-out: % control. In a few lines: as §2

A further test addresses YANK1 (Homo sapiens, UniProt Q8WU08). As to conditions: YANK1, 1 μM; read-out: % control. In a few lines:
as §2

The target in a further test is T6, EPHA3 (Homo sapiens, UniProt P29320).
T6 sequence (P29320 21-983): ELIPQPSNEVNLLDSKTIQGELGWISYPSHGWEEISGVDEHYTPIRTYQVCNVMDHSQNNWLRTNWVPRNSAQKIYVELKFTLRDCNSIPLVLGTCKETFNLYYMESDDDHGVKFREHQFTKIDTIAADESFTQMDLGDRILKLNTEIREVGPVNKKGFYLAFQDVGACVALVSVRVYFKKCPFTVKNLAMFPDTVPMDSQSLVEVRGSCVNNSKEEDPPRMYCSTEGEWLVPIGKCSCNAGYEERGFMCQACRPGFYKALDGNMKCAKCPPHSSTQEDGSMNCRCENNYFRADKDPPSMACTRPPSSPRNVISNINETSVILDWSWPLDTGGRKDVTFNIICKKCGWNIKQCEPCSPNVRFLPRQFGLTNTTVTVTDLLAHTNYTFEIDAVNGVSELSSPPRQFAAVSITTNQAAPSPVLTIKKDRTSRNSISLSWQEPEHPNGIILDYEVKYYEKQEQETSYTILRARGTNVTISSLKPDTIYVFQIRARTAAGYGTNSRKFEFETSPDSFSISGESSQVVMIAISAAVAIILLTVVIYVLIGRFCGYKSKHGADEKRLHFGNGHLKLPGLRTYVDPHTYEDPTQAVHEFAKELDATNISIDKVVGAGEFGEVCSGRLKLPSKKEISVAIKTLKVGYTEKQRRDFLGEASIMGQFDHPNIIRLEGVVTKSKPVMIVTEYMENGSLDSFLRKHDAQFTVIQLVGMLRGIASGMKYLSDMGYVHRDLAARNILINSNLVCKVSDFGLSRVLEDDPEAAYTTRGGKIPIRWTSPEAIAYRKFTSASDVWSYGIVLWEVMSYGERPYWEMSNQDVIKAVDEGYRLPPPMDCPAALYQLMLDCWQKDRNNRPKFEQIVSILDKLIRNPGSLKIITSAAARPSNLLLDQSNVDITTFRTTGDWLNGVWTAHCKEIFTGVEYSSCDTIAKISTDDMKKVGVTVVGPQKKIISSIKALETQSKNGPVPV
The following applies: EPHA3, 1 μM; read-out: % control. In a few lines:
as §1

Data on three molecules can be found in patent US12275731B2, “Azaindole inhibitors of wild-type and mutant forms of LRRK2” (DANA-FARBER CANCER INSTITUTE, INC., priority 2018, dated 2025).

T3 sequence (Q9UM73 19-1620): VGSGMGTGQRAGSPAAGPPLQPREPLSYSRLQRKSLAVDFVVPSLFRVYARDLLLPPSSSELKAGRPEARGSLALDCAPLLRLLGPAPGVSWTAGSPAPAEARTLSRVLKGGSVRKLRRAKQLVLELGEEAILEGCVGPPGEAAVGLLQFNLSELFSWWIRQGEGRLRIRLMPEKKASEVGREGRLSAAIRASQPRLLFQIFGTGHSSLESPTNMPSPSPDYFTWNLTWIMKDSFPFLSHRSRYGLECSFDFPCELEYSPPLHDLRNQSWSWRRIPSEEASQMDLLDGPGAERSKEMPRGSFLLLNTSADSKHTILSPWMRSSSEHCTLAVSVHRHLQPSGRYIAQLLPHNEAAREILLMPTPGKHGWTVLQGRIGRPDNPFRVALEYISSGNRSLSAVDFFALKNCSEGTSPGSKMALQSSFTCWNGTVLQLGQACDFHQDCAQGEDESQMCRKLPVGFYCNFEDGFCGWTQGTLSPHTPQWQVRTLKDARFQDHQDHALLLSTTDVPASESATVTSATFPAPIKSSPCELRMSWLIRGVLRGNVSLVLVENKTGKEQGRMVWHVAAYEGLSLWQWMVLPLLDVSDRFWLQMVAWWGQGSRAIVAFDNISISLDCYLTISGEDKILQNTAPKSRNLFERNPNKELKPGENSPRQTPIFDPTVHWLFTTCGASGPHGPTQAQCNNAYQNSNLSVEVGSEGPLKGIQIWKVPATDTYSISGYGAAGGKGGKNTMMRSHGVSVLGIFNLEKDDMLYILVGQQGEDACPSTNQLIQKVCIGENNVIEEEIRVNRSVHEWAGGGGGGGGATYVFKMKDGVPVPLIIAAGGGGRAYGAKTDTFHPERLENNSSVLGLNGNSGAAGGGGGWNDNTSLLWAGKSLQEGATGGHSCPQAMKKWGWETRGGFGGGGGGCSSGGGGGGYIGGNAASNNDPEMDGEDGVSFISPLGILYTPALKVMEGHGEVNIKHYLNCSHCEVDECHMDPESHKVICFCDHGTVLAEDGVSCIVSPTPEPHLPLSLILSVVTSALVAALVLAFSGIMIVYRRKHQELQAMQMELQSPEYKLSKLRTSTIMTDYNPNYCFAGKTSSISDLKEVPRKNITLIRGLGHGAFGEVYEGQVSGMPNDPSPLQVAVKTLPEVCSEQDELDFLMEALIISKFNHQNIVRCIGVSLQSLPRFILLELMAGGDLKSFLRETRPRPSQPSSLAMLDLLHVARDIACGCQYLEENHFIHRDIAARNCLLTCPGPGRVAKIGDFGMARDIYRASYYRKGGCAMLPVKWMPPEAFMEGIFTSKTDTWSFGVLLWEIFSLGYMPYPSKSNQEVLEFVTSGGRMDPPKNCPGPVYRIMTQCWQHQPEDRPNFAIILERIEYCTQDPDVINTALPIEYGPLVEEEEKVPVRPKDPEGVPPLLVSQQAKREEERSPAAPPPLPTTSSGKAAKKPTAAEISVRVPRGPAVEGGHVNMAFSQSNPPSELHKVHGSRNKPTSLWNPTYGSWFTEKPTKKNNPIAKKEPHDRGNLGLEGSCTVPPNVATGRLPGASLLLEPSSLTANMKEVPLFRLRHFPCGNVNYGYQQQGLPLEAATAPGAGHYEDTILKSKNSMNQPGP
MET(Y1235D), sequence (P08581 25-1390 Y1235D): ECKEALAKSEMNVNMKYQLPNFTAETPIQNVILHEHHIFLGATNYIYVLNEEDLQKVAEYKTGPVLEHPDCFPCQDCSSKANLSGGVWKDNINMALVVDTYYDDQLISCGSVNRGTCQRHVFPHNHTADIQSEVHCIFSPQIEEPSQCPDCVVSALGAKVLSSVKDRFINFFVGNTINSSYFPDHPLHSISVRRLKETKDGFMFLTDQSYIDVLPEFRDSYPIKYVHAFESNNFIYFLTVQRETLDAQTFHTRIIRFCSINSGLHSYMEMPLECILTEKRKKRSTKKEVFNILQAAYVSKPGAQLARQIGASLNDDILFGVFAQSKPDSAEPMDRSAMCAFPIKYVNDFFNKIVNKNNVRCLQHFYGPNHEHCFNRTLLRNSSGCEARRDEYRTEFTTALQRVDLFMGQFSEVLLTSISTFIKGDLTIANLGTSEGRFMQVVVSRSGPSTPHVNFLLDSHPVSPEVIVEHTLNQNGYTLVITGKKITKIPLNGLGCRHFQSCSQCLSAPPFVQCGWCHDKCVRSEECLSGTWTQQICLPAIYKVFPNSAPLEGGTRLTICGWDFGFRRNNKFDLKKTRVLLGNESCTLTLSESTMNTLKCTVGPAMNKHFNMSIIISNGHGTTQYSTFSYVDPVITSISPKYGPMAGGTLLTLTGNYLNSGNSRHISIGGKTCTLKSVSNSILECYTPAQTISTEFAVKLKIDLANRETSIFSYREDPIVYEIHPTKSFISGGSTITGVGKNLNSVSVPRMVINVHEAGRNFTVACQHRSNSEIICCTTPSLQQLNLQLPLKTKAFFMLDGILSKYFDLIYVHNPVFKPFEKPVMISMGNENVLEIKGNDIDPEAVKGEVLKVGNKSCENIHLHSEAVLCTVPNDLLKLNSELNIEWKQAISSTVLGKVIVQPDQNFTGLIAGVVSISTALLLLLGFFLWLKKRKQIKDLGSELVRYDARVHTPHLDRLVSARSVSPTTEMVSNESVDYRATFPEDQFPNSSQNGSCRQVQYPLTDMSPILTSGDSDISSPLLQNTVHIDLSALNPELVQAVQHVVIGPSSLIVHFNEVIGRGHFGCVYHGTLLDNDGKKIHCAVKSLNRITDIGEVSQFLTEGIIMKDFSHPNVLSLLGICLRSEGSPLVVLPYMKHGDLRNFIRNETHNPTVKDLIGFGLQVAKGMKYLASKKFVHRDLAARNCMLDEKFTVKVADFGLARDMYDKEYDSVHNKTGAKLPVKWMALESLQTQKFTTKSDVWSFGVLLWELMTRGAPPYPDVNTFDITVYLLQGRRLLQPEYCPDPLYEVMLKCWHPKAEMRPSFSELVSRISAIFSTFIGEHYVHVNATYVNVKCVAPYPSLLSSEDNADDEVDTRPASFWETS
T4 sequence (P14616 27-1297): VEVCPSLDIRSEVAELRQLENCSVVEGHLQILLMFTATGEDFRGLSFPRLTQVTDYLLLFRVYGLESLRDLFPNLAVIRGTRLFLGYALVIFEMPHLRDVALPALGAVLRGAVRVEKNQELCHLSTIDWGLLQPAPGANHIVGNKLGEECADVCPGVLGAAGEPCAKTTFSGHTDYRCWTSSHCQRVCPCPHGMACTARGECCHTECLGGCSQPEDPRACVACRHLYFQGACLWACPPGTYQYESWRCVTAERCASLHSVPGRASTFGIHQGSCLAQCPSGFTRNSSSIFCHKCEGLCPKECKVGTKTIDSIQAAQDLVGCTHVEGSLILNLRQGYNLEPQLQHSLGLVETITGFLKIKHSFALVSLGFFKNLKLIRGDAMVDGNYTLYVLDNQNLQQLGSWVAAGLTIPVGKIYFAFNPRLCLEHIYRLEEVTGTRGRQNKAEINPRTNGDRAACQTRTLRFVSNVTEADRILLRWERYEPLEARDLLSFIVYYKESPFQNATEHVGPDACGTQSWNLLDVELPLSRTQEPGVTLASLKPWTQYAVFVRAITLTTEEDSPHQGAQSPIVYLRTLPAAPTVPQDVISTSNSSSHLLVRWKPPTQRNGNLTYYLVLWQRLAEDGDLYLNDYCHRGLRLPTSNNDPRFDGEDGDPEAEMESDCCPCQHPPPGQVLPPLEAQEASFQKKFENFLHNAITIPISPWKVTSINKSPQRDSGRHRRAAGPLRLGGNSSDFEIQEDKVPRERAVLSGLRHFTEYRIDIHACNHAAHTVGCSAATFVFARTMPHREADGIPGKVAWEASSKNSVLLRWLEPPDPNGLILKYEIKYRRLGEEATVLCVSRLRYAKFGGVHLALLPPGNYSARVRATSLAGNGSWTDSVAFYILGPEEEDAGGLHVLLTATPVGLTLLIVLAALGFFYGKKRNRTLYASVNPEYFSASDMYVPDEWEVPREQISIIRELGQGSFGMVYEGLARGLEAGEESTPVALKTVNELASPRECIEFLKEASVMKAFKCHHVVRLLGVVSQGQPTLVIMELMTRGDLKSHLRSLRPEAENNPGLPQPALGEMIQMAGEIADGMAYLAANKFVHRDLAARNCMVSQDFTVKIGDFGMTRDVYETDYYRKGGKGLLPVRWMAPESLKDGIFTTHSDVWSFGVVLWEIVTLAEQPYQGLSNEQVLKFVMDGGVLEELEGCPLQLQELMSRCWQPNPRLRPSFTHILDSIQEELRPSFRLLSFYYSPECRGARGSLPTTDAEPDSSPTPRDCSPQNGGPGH
FGFR4, sequence (P22455 22-802): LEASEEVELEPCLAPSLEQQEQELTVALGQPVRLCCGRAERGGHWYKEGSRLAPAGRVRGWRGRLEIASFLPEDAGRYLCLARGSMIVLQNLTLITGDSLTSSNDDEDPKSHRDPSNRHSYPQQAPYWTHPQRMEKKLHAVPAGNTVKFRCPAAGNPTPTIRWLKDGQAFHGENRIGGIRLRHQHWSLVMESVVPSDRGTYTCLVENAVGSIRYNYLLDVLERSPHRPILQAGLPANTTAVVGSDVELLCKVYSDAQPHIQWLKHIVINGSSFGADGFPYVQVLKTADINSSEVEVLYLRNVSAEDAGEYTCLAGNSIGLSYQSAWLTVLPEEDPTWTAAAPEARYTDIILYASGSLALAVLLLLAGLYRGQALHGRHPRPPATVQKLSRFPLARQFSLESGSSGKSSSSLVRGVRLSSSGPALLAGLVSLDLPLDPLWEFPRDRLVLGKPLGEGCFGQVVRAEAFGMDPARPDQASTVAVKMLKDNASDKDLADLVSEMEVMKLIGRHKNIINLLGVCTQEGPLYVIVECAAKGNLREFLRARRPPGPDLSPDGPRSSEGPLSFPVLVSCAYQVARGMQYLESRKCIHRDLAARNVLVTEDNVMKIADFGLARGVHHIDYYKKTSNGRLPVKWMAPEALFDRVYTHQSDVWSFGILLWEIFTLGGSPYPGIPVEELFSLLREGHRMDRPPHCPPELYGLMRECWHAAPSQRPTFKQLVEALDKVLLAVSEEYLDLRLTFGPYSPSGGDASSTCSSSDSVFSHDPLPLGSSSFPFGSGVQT

With `CNc1c(-c2ccc(C(=O)N3CCC(N4CCOCC4)CC3)cc2)cnc2[nH]cc(Cl)c12` [Compound 96, (4-(3-chloro-4-(methylamino)-1H-pyrrolo[2,3-b]pyridin-5-yl)phenyl)(4-morpholinopiperidin-1-yl)methanone], the remaining binding at 1 µM was determined as 21% on PDGFRB; 75% on PIK3CA(C420R); 100% on MAPKAPK5; 46% on ALK; 59% at FGFR4; 6% on MINK. The remaining binding at 1 µM turned out to be 66% at OSR1; 72% on CSNK2A1; 96% on INSRR; 83% at MET(Y1235D); 7.8% in test [1]; 100% at YANK1. At EPHA3, the remaining binding at 1 µM worked out at 100%.
As for `O=C(c1ccc(-c2cnc3[nH]cc(Cl)c3c2NC2CCCC2)cc1)N1CCC(N2CCOCC2)CC1` [Compound 101, (4-(3-chloro-4-(cyclopentylamino)-1H-pyrrolo[2,3-b]pyridin-5-yl)phenyl)(4-morpholinopiperidin-1-yl)methanone], the remaining binding at 1 µM was 83% on PDGFRB; 100% at PIK3CA(C420R); 100% at MAPKAPK5; 75% on ALK; 85% at FGFR4; 62% on MINK. The remaining binding at 1 µM on OSR1 was 100%; on CSNK2A1, 100%; on INSRR, 84%; on MET(Y1235D), 30%; in test [1] it was 62%; on YANK1, 100%. The remaining binding at 1 µM at EPHA3 came to 82%.
Consider `CNc1c(-c2cnn([C@H]3CCN(C(C)=O)C[C@@H]3F)c2)cnc2[nH]cc(Cl)c12` [Compound 77, 1-((3S,4S)-4-(4-(3-chloro-4-(methylamino)-1H-pyrrolo[2,3-b]pyridin-5-yl)-1H-pyrazol-1-yl)-3-fluoropiperidin-1-yl)ethan-1-one], for which the remaining binding at 1 µM was 20% on PDGFRB; 75% at PIK3CA(C420R); 100% on MAPKAPK5; 40% on ALK; 61% at FGFR4; 17% on MINK. For the same molecule, the remaining binding at 1 µM is 75% on OSR1; 75% at CSNK2A1; 92% at INSRR; 56% on MET(Y1235D); 8.2% in test [1]; 100% at YANK1. The remaining binding at 1 µM on EPHA3 was 90%.
